Test results: PubChem BioAssay (NCI)
Several values for one entry are separate records, joined by “and”; a condition that tells them apart may be missing. Identical values can stand only once.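 48-hour exposure; five concentrations; linearly interpolated endpoints. The concentration for 50% growth inhibition is given as GI50. TGI: total growth inhibition.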

Assays:
Assay in all cases: NCI anticancer screen, dose series, 48 h
NCI-H460 lung = tested on: NCI-H460 lung
KM20L2 colon = tested on: KM20L2 colon
M14 melanoma = tested on: M14 melanoma
DLD-1 colon = tested on: DLD-1 colon
M19-MEL melanoma = tested on: M19-MEL melanoma
DMS 114 small cell lung = tested on: DMS 114 small cell lung
LOX IMVI melanoma = tested on: LOX IMVI melanoma
SW-620 colon = tested on: SW-620 colon
DU-145 prostate = tested on: DU-145 prostate
MDA-MB-231 breast = tested on: MDA-MB-231 breast

| SMILES | TGI (NCI-H460 lung) [µM] | TGI (KM20L2 colon) [µM] | TGI (M14 melanoma) [µM] | TGI (DLD-1 colon) [µM] | TGI (M19-MEL melanoma) [µM] | TGI (DMS 114 small cell lung) [µM] | TGI (LOX IMVI melanoma) [µM] | TGI (SW-620 colon) [µM] | GI50 (DU-145 prostate) | TGI (DU-145 prostate) [µM] | GI50 (NCI-H460 lung) | GI50 (MDA-MB-231 breast) [µM] | TGI (MDA-MB-231 breast) [µM] | GI50 (M14 melanoma) [µM] | GI50 (LOX IMVI melanoma) | GI50 (SW-620 colon) | GI50 (KM20L2 colon) [µM] | GI50 (DLD-1 colon) [µM] | GI50 (M19-MEL melanoma) [µM] | GI50 (DMS 114 small cell lung) [µM] |
| --- | --- | --- | --- | --- | --- | --- | --- | --- | --- | --- | --- | --- | --- | --- | --- | --- | --- | --- | --- | --- |
| CCCCCCCCCc1cc(=O)c2ccc(OCc3ccccc3)cc2o1 | > 100 | > 100 | > 100 | > 100 | > 100 | > 100 | > 100 | > 100 | – | – | – | – | – | – | – | – | – | – | – | – |
| CC1CCCCc2nc3c(c(=O)n21)CCCC3 (centres undefined) | > 100 | > 100 | > 100 | > 100 | > 100 | – | > 100 | > 100 | – | – | – | – | – | – | – | – | – | – | – | – |
| CCN(Cc1ccc(F)c(F)c1)c1ccc(CO)c(Cl)c1 | 10.7 | – | 30.2 | – | – | – | 25.7 | 21 | 14.8 µM | 38.2 | 0.253 µM | 12.8 | 26.6 | 14 | 11.8 µM | 0.753 µM | – | – | – | – |
| N#Cc1cnc2cc(OC[C@H](O)CO)c(NC(=O)CC3CSSC3)cc2c1Nc1ccc(OCc2cccc(F)c2)c(Cl)c1 | 0.298 | – | 0.447 | – | – | – | 3.41 | 1.58 | 0.637 µM | 1.36 | 0.126 µM | 0.288 | 1.03 | 0.139 | 2.26 µM | 0.698 µM | – | – | – | – |
| C=C1C(=O)O[C@H]2[C@H]1CC/C(COC(=O)NCc1ccccc1OC)=C\CC[C@@]1(C)O[C@@H]21 | 14.6 | – | 2.56 | – | – | – | 2.96 | 3.16 | 0.698 µM | 1.98 | 3.73 µM | 1.47 | 3.49 | 1.1 | 1.43 µM | 0.768 µM | – | – | – | – |
| COc1cccc(/C=C/C(=O)c2cccc(Nc3nc(Nc4ccccc4)nc(Nc4ccccc4)n3)c2)c1 | > 61.8 | – | > 72.2 | – | – | – | 21.3 | > 48.3 | 19.9 µM | > 100 | 9.01 µM | 32.7 | > 100 | 19.3 | 7.04 µM | 3.68 µM | – | – | – | – |
| COc1ccccc1NC(=O)CC(=O)N1N=C(C)C(N=Nc2ccc(S(N)(=O)=O)cc2)C1=O (centres undefined) | > 100 | > 100 | > 100 | > 100 | > 100 | > 100 | > 100 | > 100 | – | – | – | – | – | – | – | – | – | – | – | – |
| Cc1ccncc1.[O]=[Ge].[O]=[Ge].[O]=[Ge].[O]=[Ge].[O]=[Ge].[O]=[Ge][OH].[O]=[Ge][OH] | > 100 | > 100 | > 100 | > 100 | > 100 | > 100 | > 100 | > 100 | – | – | > 100 µM | – | – | > 100 | > 100 µM | > 100 µM | > 100 | > 100 | > 100 | > 100 |
| C=C1C(=O)O[C@H]2[C@H]1[C@H](OC(=O)/C(C)=C\C)CC(=C)[C@@H]1[C@H](O)[C@H]3O[C@@]3(C)[C@@]12O | > 100 | > 100 | > 100 | > 100 | > 100 | > 100 | > 100 | > 100 | – | – | – | – | – | – | – | – | – | – | – | – |
| COc1cc(C2c3cc4c(cc3OC(N3CCCC3)C2C)OCO4)cc(OC)c1OC (centres undefined) | 14.5 | – | 12.8 | – | – | – | 25.9 | > 33.9 | – | 11.3 | – | – | 9.32 | – | – | – | – | – | – | – |
| Cc1sc(C(=O)Nc2cc(C(=O)NCCCN(C)C)n(C)c2)cc1NC(=O)CCCN1C(=O)c2cccc3cccc(c23)C1=O | > 100 | – | > 100 | – | – | – | > 100 | > 100 | > 100 µM | > 100 | > 100 µM | > 100 | > 100 | > 100 | > 100 µM | > 100 µM | – | – | – | – |
| O=C1OC(=O)C(c2c[nH]c3ccccc23)=C1c1c[nH]c2ccccc12 | > 25 | – | > 25 | – | – | – | > 25 | > 25 | > 25 µM | > 25 | > 25 µM | 14.5 | > 25 | > 25 | > 25 µM | > 25 µM | – | – | – | – |
| O=C(c1ccccc1)C1N=NCC1c1ccc([N+](=O)[O-])cc1 (centres undefined) | > 100 | – | > 100 | – | – | – | > 100 | > 100 | – | > 100 | – | – | > 100 | – | – | – | – | – | – | – |
| Nc1ccn(Cc2ccc(C34CC5CC(CC(C5)C3)C4)c(O)c2)c(=O)n1 | > 100 | – | > 100 | – | – | – | > 100 | > 100 | > 100 µM | > 100 | > 100 µM | > 100 | > 100 | > 100 | > 100 µM | > 100 µM | – | – | – | – |
| COc1nc(NC2OCC(OC(C)=O)C(OC(C)=O)C2OC(C)=O)c(N=CC=Nc2c(NC3OCC(OC(C)=O)C(OC(C)=O)C3OC(C)=O)nc(OC)n(C)c2=O)c(=O)n1C (centres undefined) | > 100 | > 100 | > 100 | > 100 | > 100 | – | > 100 | > 100 | – | – | – | – | – | – | – | – | – | – | – | – |
| COc1ccccc1NC(=O)C1=C(C)NC(C)=C(C(=O)Nc2ccccc2OC)C1c1ccccc1F | > 100 | > 100 | > 100 | > 100 | – | > 100 | > 100 | > 100 | – | – | – | – | – | – | – | – | – | – | – | – |
| COC(=O)CCC1CCc2c(OC)ccc(O)c2C1=O (centres undefined) | > 100 | – | > 100 | > 100 | > 100 | – | > 100 | > 100 | – | – | – | – | – | – | – | – | – | – | – | – |
| C[C@@H](C(=O)Nc1ccc(Cl)cc1)C1CCC(c2ccnc3ccc(F)cc23)CC1 (some centres undefined) | 45.5 | – | > 100 | – | – | – | 21.3 | > 100 | 12.6 µM | > 100 | 4.3 µM | 7.83 | 48 | 7.12 | 5.85 µM | 19 µM | – | – | – | – |
| COC(=O)c1csnn1 | > 100 | > 100 | > 100 | – | > 100 | > 100 | > 100 | > 100 | – | – | – | – | – | – | – | – | – | – | – | – |
| CC(C)NC[C@@H](C(=O)N1CCN(c2ncnc3c2[C@H](C)C[C@H]3O)CC1)c1ccc(Cl)cc1 | > 100 | – | > 100 | – | – | – | > 100 | > 100 | > 10 µM and 40.3 µM | > 100 | 1.47 µM and 2.33 µM | > 69 | > 100 | > 61.5 | > 10 µM and 66 µM | > 10 µM and 35.9 µM | – | – | – | – |
